Data on four compounds can be found in patent US20200215085A1, “Method to Abate Acute Airway Hypersensitivity and Asthma Attacks” (UTI Limited Partnership, priority 2017, published 2020).

Entries after “also recorded” stand apart in the source; their conditions may differ.

For assay [1], the system named is carotid body. The experiment in a line: en bloc perfused carotid body preparation: carotid sinus nerve response to LPA. More on the design: species or system Sprague-Dawley rats. Conditions: for reduction of 5 μM LPA-mediated carotid sinus nerve excitation: 5 μM LPA (18:1), AMG9810 10 μM, BrP-LPA 1.5 μM, Ki16425 5 μM, mean±sem; for effect of LPAr blockade on carotid sinus nerve response to LPA (5 μM): BrP-LPA 1.5 μM or Ki16425 5 μM, FIGS. 2A-2B; for en bloc carotid body's response to LPA blocked: en bloc preparation.

In a further assay the test system is OVA-sensitized rats. The experiment in a line: bradykinin-induced bronchoconstriction (RL, Flexivent) in anesthetized ovalbumin-sensitized rats. Conditions: nebulized 0.4 mg bradykinin at 1, 10, 20 min, antagonists iv (BrP-LPA 3 mg/kg, Ki16425 5 mg/kg, AMG9810 10 μM/kg). The format is in vivo, Brown Norway rats. As to the method: In order to examine the involvement of LPA-induced carotid body activity on airway resistance in response to bradykinin nebulization, alfaxan-anesthetized animals and the Flexivent system were used. These experiments were performed with a number of acute interventions affecting the proposed pathway, including vagotomy, carotid body denervation, and TRPV1 and/or LPA receptor blockade. Prior to bradykinin, these interventions had no effect on airway resistance (Holm-S̆idák post hoc test comparing asthma control vs any manipulation group: p>0.06) and as expected, bradykinin had no effect on non-asthmatic lungs (p>0.3). However, the acute bronchoconstriction induced by bradykinin in asthmatic lungs was diminished by at least 60% with all interventions (FIG. 4B). The loss of bradykinin-induced bronchoconstriction also occurred in chronic carotid body denervated, but not sham rats (data not shown).
Brown Norway rats (80-120 g) were sensitized to ovalbumin (1 mg) with pertussis toxin (0.5 ng) and aluminum hydroxide as adjuvant (0.15 g) dissolved in saline (1 ml ip; OVA sensitized), or saline (1 ml ip; Naïve) for three consecutive days (Days 1, 2, and 3) and challenged with aerosolized 5% ovalbumin (OVA, dissolved in 0.9% saline) or saline (Naïve) on days 15, 18 and 21 for 10 min. All anaesthetized experiments conducted on OVA and Naïve rats were conducted ˜7 days (day 28) following the last aerosol exposure. […]
OVA Cohort 1 (n=26): To determine the effect of bradykinin and OVA-sensitization on airway resistance (RL) OVA-sensitization (day 28) and naïve rats were anesthetized with isoflurane (5%, balance O2) and instrumented for surgery. […] Data were analyzed with two-way repeated measures ANOVA (time×group). […] Airway mechanics were measured in response to bradykinin nebulizations (as in Cohort 1). Heart rate was attained from the blood pressure waveform, SaO2 was monitored from a pulse oximeter (Kent Scientific, Torrington Conn.) and blood gases were analyzed from 0.1 ml arterial samples drawn before and after bradykinin with a blood gas analyzer (Element POC, Heska Barrie, ON). […]

Assay [2] deals with carotid body. Kind of assay: in situ dual-perfused preparation: phrenic and vagal nerve discharge after LPA to the carotid body circulation. More on the design: species or system Sprague-Dawley rats. Conditions: carotid bodies intact.
The next assay concerns naïve Brown Norway rats. The experiment in a line: airway resistance after intravenous bolus in naïve anesthetized ventilated rats (Flexivent). In kind it is in vivo. Conditions: naïve rats with intact CSN; 0.5 ml bolus, 5 μM LPA or 6 μM NaCN.
Another assay concerns glomus cells. Kind of assay: Fura 2 calcium imaging of carotid body type I (glomus) cells. The format is cell-based, Sprague-Dawley rats. The following applies: LPA 5 μM. How it is done: Sprague-Dawley rats (80-150 g, P21-28) were anaesthetised with isoflurane (3-5% in O2) and carotid bodies were harvested and digested in 0.4 mg ml^−1 collagenase type I (Worthington Biochemical Corporation, Lakewood, N.J.) and 0.2 mg ml^−1 trypsin type I (Sigma-Aldrich, St. Catherines, QC) in DPBS enzyme solution with low CaCl2) (86 μM) and MgCl2 (350 μM), for 20 min at 37° C. followed by dissociation with forceps and incubated for an additional 7 min. The tissue was centrifuged (115 g) for 3 min, supernatant removed and the pellet re-suspended in Ham's F12 (Sigma-Aldrich, St. Catherines, QC) supplemented with 10% heat inactivated fetal bovine serum (Biowest, San Marcos, Tex.). Cells were released by trituration with fire polished silanised Pasteur pipettes (Sigma-Aldrich, St. Catherines, QC). […]
Type I cells were loaded with 5 μM FURA-2AM (Invitrogen, Carlsbad Calif.) in serum free Ham's F12 nutrient media for 30 min at room temperature in humidified 5% CO2, 10% O2, before being transferred to FURA-2AM-free media in the same conditions for 20 min. […] The FURA-2 loaded cells were excited by 50 ms exposures to 340/380 nm light using a Lambda 10-3 filter wheel every 5 s and emitted light was recorded at 510 nm using a Coolsnap HQ2 CCD camera (Photometrics, Tucson Ariz.). […]

The test system of another assay is asthmatic rats. The experiment in a line: airway resistance after nebulized LPA in asthmatic rats (Cohort 5). The following applies: nebulized LPA 5 μM. In kind it is in vivo, rat.

For `CC(C)(C)c1ccc(/C=C/C(=O)Nc2ccc3c(c2)OCCO3)cc1` [AMG9810, (2E)-N-(2,3-Dihydro-1,4-benzodioxin-6-yl)-3-[4-(1,1-dimethylethyl)phenyl]-2-propenamide], the “reduction of 5 μM LPA-mediated carotid sinus nerve excitation” value (shortened to “reduction”) with carotid body [1] was found to be 41±6%. The “LPA response remaining after BrP-LPA or Ki16425 blockade, on subsequent application of AMG9810” value in the assay with carotid body [1] (AMG9810 10 μM added after LPAr blockade (dual block), LPA 5 μM) is on record as “blocks the LPA response; also recorded: almost abolished”. Also, in the assay with OVA-sensitized rats, the “effect on bradykinin-induced increase in RL compared to OVA” value (shortened to “effect on bradykinin-induced increase”) is recorded as “abolished the effects of bradykinin”.

As for `CCCCCCCCCCCCCCCC(=O)OC[C@@H](O)CC(Br)P(=O)(O)O` (stereo partly drawn) [BrP-LPA, [(3S)-1-bromo-4-hexadecanoyloxy-3-hydroxybutyl]phosphonic acid], in the assay with carotid body [1], the “reduction” value is 70±3%, the “effect of LPAr blockade on carotid sinus nerve response to LPA (5 μM)” value is recorded as “diminishes the response to LPA” and the “en bloc carotid body's response to LPA blocked” value was “Approximately 70%”. Moreover, in the assay on OVA-sensitized rats, the “effect on bradykinin-induced increase” value is “abolished the effects of bradykinin”.

As to `Cc1noc(-c2ccc(CSCCC(=O)O)cc2)c1NC(=O)OC(C)c1ccccc1Cl` (stereo not drawn) [Ki16425, 3-(4-[4-([1-(2-chlorophenyl)ethoxy]carbonylamino)-3-methyl-5-isoxazolyl]benzylsulfanyl) propanoic acid], in the assay with carotid body [1], the “reduction” value came to 61±9%, the “effect of LPAr blockade on carotid sinus nerve response to LPA (5 μM)” value was “diminishes the response to LPA” and the “en bloc carotid body's response to LPA blocked” value is recorded as “Approximately 70%”. In the assay on OVA-sensitized rats, the “effect on bradykinin-induced increase” value is reported as “abolished the effects of bradykinin”.

For Oleoyl-Lysophosphatidic acid [LPA], the “phrenic nerve burst amplitude” value in the assay on carotid body [2] (LPA 5 μM delivered to the CB circulation, baseline 1±0.5) came out at 2.5±0.5 normalized units. The “phrenic nerve burst rate” value in the assay with carotid body [2] (LPA 5 μM delivered to the CB circulation, baseline 1.2±0.8) was determined as 20.8±2.9 burst·min^−1. For the same compound, the “phrenic and vagal nerve efferent discharge” value in the assay on carotid body [2] (bolus of 5 μM LPA) is on record as “increases”. In addition, the airway resistance entry in the assay on naïve Brown Norway rats is recorded as “increased airway resistance”. Also, the “intracellular calcium in glomus cells” value with glomus cells is “increased intracellular calcium release”. The “immediate effect of nebulized LPA on airway resistance” value in the assay with asthmatic rats is “no immediate effect”. The “airway resistance after 30 min of nebulized LPA” value with asthmatic rats (abolished by carotid body denervation) is “increase in airway resistance”.
